In patent US20140141069A1, “BETA-GUANIDINOPROPIONIC ACID FOR THE TREATMENT OF HYPERTENSION” (priority 2011, published 2014):
Read-outs that look alike come from different tables or passages of the source.

What was measured:
[1] = tested on: ADP-dependent platelet aggregation; assay: Blood CK titration at 1 μmol/L ADP, platelet aggregation (pilot experiment); assay type: cell-based
creatine kinase [2] = settings: equimolar quantities of DNFB, cited from earlier work
rats = settings: 1% in rat chow, up to 8 weeks of feeding; cited from earlier work
creatine kinase [3] = settings: creatine kinase reaction; cited from earlier work
[4] = tested on: Spontaneous Hypertension (SH) rats; assay: Blood pressure of non-obese SH rats on creatine-free diet with 0.1% β-guanidinopropionic acid; assay type: in vivo, rat; settings: feed contained 0.1% β-guanidinopropionic acid
Description: The effects of β-guanidinopropionic acid can not be explained by, for example, a reduction in weight.

SHR mesenteric arteries = assay: Vasodilation/contractility of SHR mesenteric arteries in vitro in a wire myograph with the CK-inhibitor DNFB; design: species or system rat; settings: p<0.01
[5] = Certified toxicological testing of marketed β-guanidinopropionic acid; settings: preliminary tests of product marketed for human use
[6] = cited from earlier work
SH rats = assay: Tail cuff blood pressure in SH adult rats given 3% β-GPA (Example 4); assay type: in vivo, rat; settings: 3% β-GPA in feed, tailcuff method
Experimental: A total of 24 SH adult rats are divided into 4 groups: the test group is given 3% β-GPA , a second group is given 3% creatine, a third group is given 3% creatine +3% β-GPA; and a control group receives only normal feed. SH rats are usually also associated with high creatine kinase levels, although it is unknown whether this is cause or result of the spontaneous high blood pressure. […] Blood pressure was measured at the tail using standard methods (tailcuff method). In the control group, the blood pressure rises. An absence in the rise of blood pressure or even a reduction in the blood pressure in the test group indicates the blood pressure lowering effect of β-GPA. In order to exclude a possible effect of creatine deficiency or a possible effect of creatine itself on the blood pressure level, the two additional control groups (3% creatine or 3% creatine +3% β-GPA).

[7] = tested on: myocardial phosphocreatine and creatine; settings: high doses; cited from earlier work
SHR = assay: Tail cuff blood pressure in SHR on a diet with β-GPA versus standard diet (Example 5); assay type: in vivo, rat
Experimental: Male, non-obese, normoglycaemic, 16-weeks-old SHR without lipid abnormalities were randomly assigned to a diet with β-GPA versus a standard diet without β-GPA (N=8 per group). Blood pressure was measured weekly with the tail cuff method. All blood pressure measurements were performed unblinded under equal conditions. Body temperature was kept constant during the measurements at 36-38° C. […] Data are expressed as mean (SEM).

**Q.** For CN(CC(=O)O)C(=N)NP(=O)(O)O [CrP, phosphocreatine], which “Inhibition of ADP-dependent platelet aggregation with increasing CK” value [1] is on record?
**A.** greater inhibition of ADP-dependent platelet aggregation

**Q.** Which “Mean inhibition of contraction” value (creatine kinase [2]; blacks) does the source give for O=[N+]([O-])c1ccc(F)c([N+](=O)[O-])c1 [DNFB, dinitrofluorobenzene] here?
**A.** 0.32

**Q.** And the “Mean inhibition of contraction” value (creatine kinase [2]; whites)?
**A.** 0.90

**Q.** For NC(N)=NCCC(=O)O [β-GPA, 3-(diaminomethylideneamino)propanoic acid], which “Cardiac function or sprint capacity in vivo” value (rats) is on record?
**A.** does not lead to reduced cardiac function or overtly reduced sprint capacity

**Q.** And the “in vitro Vmax relative to the Vmax values of creatine and phosphocreatine” value (creatine kinase [3])?
**A.** < 1%

**Q.** And the “Blood pressure rise characteristic for SH rats” value [4]?
**A.** did not show blood pressure rise

**Q.** What about the “Residual contractility after the CK inhibitor DNFB, versus controls” value (SHR mesenteric arteries; mesenteric arteries of rats treated with β-GPA compared to controls, DNFB, mean (SEM)) of the same compound?
**A.** −41.3 (13.0) %

**Q.** And the “Vasodilation of mesenteric arteries compared to controls” value (SHR mesenteric arteries; rats treated with β-GPA before sacrifice, in vitro incubation with dinitrofluorobenzene, N=5 to 6 per group)?
**A.** significantly increased

**Q.** What about the Certified toxicological testing [5] of the same compound?
**A.** passed certified toxicological testing

**Q.** And the Solubility in water [6]?
**A.** up to 50 mg/ml

**Q.** And the “Blood pressure level versus control SH rats” value (SH rats)?
**A.** lower than that of the control SH rats

**Q.** And the “Reduction of myocardial phosphocreatine and creatine concentrations” value [7]?
**A.** up to 80%

**Q.** What about the Weight changes (SHR; diet with β-GPA) of the same compound?
**A.** no significant weight changes

**Q.** What about the Systolic pressure reduction (SHR; diet with β-GPA vs controls, 4 weeks, tail cuff, mean (SEM), N=8 per group, p<0.001) of the same compound?
**A.** −42.7 (5.5) mm Hg

**Q.** And the Diastolic pressure reduction (SHR; diet with β-GPA vs controls, tail cuff, mean (SEM), p<0.001)?
**A.** −35.3 (4.8) mm Hg
